Reference: PMC7004151, “Synthesis and Structure‐Activity Relationships of N‐(4‐Benzamidino)‐Oxazolidinones: Potent and Selective Inhibitors of Kallikrein‐Related Peptidase 6” (Chemmedchem, 2019)

Tests used:
Human Factor Xa = molecular target: T1, Human Factor Xa (Homo sapiens, UniProt P00742); assay: Factor Xa enzyme inhibition assay; assay type: biochemical; details: read-out: Factor Xa pIC50 (converted)
T1 construct: Human Factor Xa was purchased from Enzo Life Sciences; purchased Enzo Life Sciences
Procedure: Human thrombin was purchased from Biopur. Human trypsin was purchased from Polymun Scientific. Human Factor Xa was purchased from Enzo Life Sciences. Thrombin (20 nM), trypsin (0.000015 %) or Factor Xa (10 nM) were assayed in a similar manner to the KLKs but were incubated with compound for 20 min at room temperature in assay buffer (50 mM Tris HCl, pH 7.6, 100 mM NaCl, 1 mg/ml CHAPS, 0.05 % bovine serum albumin (BSA), 1 mM dithiothreitol (DTT)) before the addition of 5 μM, 2.5 μM or 1.5 μM Rhodamine 110 substrate (Cambridge bioscience ltd) respectively. Fluorescence intensity was then read at ex/em 485/535 following incubation for 1 h at room temperature (thrombin and factor Xa) or 20 min (trypsin).

CYP1A2 = molecular target: T2, CYP1A2 (Homo sapiens, UniProt P05177); assay: Fluorescence-based CYP inhibition, CYP bactosomes; assay type: in vitro ADME; details: read-out: CYP Inhibition IC50 1A2
T2 construct: purchased Cypex; host or cells: bacterial membranes (bactosomes)
T2 sequence (P05177 1-516): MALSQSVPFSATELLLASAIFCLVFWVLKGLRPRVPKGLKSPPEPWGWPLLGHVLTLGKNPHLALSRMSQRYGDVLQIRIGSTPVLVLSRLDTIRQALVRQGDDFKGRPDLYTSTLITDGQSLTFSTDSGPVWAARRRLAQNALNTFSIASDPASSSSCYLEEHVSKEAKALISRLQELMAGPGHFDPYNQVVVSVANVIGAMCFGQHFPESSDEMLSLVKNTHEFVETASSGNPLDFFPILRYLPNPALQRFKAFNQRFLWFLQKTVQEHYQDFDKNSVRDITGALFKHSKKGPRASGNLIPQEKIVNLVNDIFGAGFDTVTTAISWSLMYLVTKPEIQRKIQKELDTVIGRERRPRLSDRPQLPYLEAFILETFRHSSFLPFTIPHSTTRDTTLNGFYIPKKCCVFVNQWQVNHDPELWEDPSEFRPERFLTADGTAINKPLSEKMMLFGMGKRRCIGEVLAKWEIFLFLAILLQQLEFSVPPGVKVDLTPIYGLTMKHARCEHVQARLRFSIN
Procedure: (§1) Fluorescence-based CYP Inhibition using recombinantly expressed CYP bactosomes: Fluorescence CYP inhibition studies were conducted at 37 °C in 96-well, flat-bottom, clear polystyrene plates. Incubation mixtures containing […] bactosomes (1000 pmol/mL, 10 mg/mL Cypex TM), fluorigenic substrate (Cypex TM) and 50 mM potassium phosphate buffer (pH 7.4) were prepared at the following final concentrations: CYP1A2, 5 pmol/mL+0.5 μM Ethoxyresorufin (ER); […] Bactosome control protein was included in reactions to give a final concentration of 0.025 mg/mL. Reaction times were verified to be within the limits of kinetics linearity. For each isoform, 220 μL of incubation mix was added to each well of a 96-well, flat-bottom, clear polystyrene plate. […] Reactions were initiated by the addition of 25 μL regenerating cofactor solution (23 mM Glucose-6-Phosphate, 2.2 mM NADP, 6 Units per ml Glucose-6-Phosphate Dehydrogenase (from Baker's yeast S. cerevisiae) in 2 % w/v NaHCO3, Sigma) and subsequent production of fluorescence metabolite measured at 1 min intervals over a 10 min period using a BMG Optima fluorescence detector (ER: Exc 530 nm, Em 590 nm, MFC: Exc 410 nm, Em 530 nm, CEC: Exc 410 nm, Em 530 nm, MAMC: Exc 405 nm, Em 460 nm, DEF: Exc 405 nm, Em 560 nm, 7BQ: Exc 485 nm, Em 530 nm). Fluorescence responses were adjusted to a percentage of uninhibited control before plotting against compound concentration and deriving the IC50 by fitting to a 4 parameter logistic regression model.

CYP2C19 = molecular target: T3, CYP2C19 (Homo sapiens, UniProt P33261); assay: Fluorescence-based CYP inhibition, CYP bactosomes; assay type: in vitro ADME; details: recombinantly expressed CYP bactosomes (EasyCYP), pH 7.4, probe 3-Cyano-7-Ethoxycoumarin (CEC), 25 μM, read-out: CYP Inhibition IC50 2C19
T3 construct: purchased Cypex; host or cells: bacterial membranes (bactosomes)
Procedure: as §1

CYP2C9 = molecular target: T4, CYP2C9 (Homo sapiens, UniProt P11712); assay: Fluorescence-based CYP inhibition, CYP bactosomes; assay type: in vitro ADME; details: read-out: CYP Inhibition IC50 2C9
T4 construct: purchased Cypex; host or cells: bacterial membranes (bactosomes)
Procedure: as §1

CYP2D6 = molecular target: T5, CYP2D6 (Homo sapiens, UniProt P10635); assay: Fluorescence-based CYP inhibition, CYP bactosomes; assay type: in vitro ADME; details: read-out: CYP Inhibition IC50 2D6
T5 construct: purchased Cypex; host or cells: bacterial membranes (bactosomes)
Procedure: as §1

CYP3A4 = molecular target: T6, CYP3A4 (Homo sapiens, UniProt P08684); assay: Fluorescence-based CYP inhibition, CYP bactosomes; assay type: in vitro ADME; details: read-out: CYP Inhibition IC50 3A4
T6 construct: purchased Cypex; host or cells: bacterial membranes (bactosomes)
Procedure: as §1

T3 sequence (P33261 whole entry): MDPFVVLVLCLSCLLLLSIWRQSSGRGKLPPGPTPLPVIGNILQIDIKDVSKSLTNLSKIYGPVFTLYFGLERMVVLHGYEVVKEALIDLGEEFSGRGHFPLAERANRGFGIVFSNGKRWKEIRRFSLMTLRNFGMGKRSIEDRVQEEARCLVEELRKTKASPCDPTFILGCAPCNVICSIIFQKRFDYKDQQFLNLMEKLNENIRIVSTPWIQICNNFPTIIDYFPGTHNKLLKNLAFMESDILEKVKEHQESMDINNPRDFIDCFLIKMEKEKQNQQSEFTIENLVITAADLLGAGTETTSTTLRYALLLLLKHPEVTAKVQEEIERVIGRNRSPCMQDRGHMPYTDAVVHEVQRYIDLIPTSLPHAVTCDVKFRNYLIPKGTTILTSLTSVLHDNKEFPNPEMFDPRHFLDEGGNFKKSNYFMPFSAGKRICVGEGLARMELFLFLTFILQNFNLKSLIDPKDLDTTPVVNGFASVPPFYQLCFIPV
T4 sequence (P11712 whole entry): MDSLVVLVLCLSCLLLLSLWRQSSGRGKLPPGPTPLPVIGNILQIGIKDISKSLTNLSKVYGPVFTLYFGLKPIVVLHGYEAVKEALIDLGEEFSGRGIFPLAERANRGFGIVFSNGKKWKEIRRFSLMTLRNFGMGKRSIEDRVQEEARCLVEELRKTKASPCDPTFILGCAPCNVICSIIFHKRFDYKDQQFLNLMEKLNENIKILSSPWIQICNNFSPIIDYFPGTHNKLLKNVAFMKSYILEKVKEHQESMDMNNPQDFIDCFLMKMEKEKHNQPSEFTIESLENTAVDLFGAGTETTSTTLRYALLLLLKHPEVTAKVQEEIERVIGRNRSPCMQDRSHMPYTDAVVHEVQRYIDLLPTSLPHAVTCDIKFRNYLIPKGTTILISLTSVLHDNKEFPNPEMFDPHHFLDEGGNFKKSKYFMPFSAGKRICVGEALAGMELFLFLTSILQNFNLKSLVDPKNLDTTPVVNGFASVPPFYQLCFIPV
T5 sequence (P10635 whole entry): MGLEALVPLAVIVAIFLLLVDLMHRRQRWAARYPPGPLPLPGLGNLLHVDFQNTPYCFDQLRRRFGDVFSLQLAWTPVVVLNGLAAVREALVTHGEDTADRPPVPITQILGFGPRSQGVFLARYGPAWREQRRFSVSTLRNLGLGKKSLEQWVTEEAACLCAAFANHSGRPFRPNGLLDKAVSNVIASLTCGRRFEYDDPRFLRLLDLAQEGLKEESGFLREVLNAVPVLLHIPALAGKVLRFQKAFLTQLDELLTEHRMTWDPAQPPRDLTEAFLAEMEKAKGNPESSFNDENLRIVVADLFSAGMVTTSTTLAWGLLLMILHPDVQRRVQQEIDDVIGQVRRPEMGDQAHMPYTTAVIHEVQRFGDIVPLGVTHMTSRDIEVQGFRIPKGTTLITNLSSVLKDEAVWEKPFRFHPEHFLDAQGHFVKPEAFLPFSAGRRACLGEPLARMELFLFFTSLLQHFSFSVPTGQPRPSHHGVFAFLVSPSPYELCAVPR
T1 sequence (P00742 235-488 limits assumed): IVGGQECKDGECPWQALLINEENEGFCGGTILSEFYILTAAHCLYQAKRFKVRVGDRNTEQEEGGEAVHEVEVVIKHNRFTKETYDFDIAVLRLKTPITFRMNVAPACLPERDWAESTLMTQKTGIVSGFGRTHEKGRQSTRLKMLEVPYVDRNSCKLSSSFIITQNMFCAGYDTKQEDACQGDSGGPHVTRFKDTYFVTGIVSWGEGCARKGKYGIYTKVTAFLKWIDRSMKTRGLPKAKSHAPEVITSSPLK
T1 sequence (P00742 41-179 partner limits assumed): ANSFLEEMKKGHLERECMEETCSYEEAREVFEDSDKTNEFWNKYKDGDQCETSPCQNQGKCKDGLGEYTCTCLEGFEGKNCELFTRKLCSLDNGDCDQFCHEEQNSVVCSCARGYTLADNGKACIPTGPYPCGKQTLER
T6 sequence (P08684 whole entry): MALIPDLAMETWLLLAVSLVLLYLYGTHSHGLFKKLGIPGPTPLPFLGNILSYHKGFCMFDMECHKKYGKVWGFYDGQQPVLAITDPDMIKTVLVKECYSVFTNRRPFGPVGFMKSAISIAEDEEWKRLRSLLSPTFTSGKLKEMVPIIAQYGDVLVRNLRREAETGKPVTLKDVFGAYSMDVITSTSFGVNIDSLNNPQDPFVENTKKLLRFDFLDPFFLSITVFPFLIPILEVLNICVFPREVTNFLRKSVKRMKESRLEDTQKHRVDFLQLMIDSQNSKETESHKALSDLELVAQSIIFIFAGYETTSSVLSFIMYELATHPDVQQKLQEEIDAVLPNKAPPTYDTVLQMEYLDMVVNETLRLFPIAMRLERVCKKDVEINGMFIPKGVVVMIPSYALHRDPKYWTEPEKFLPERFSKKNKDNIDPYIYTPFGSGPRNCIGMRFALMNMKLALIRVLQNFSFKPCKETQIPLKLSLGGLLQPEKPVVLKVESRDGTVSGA

Structure (SMILES): CC[C@H](NC(=O)[C@H]1CN(c2ccc(C(=N)N)cc2)C(=O)O1)c1cccc2ccccc12 [Compound 32, (5R)‐3‐(4‐carbamimidoylphenyl)‐N‐((S)‐1‐(naphthalen‐1‐yl)propyl)‐2‐oxooxazolidine‐5‐carboxamide]
- IC50 (Human Factor Xa): > 20 µM
- IC50 (CYP1A2): > 10 µM
- IC50 at 10 min (CYP2C19): 7.9 µM
- IC50 (CYP2C9): > 10 µM
- IC50 (CYP2D6): > 10 µM
- IC50 (CYP3A4): 4.8 µM
